Measured values taken from patent publication US20240336642A1 (The General Hospital Corporation, priority 2021, published 2024).
Structures can show the parent of a compound that is named as a salt.

What was measured:
[1] = Hydrolysis of prodrug in plasma; type: in vitro ADME
Procedure: (§1) 20 mg/ml were obtained in 20% Captisol, allowing for intravenous delivery in the mouse stroke model.

[2] = Aqueous solubility of exemplified compounds (Example 3); type: physicochemical
h12/15-LOX = h12/15-LOX (Homo sapiens (Human), UniProt P16050); assay: 12/15-LOX enzyme inhibition IC50 assay (Examples 1 and 2); type: biochemical
Procedure: Enzyme was then added to the cuvettes. […] The % inhibition for each test compound concentration were calculated as follows: […]

[3] = test system: experimental stroke model in mice (MCAO); assay: Mouse stroke model, filament middle cerebral artery occlusion (MCAO), infarct size; type: in vivo; conditions: 40 mg/kg i.v. in 50% Captisol, immediately after reperfusion, 24 h
Procedure: Studies were carried out in experimental stroke model in mice, using the filament model of middle cerebral artery occlusion (MCAO). For intraperitoneal delivery, compounds were dissolved in DMSO. A number of exemplified compounds were able to reduce infarct size when given at a dosage of 40 mg/kg.
40 mg/kg cmpd. 1 were given i.p. at time of reperfusion. Infarct size was measured at 24 hours after 60 minutes MCAO.
MCAO (Experimental Middle Cerebral Artery Ischemia and Functional Recovery) experiment: 40 mg/kg of compound delivered intraperitoneally 2 h post reperfusion, 60 minutes MCAO, sacrifice at 24 h, infarct size determined by TTC staining.

[4] = Solubility in formulation vehicles (Solutol HS-15/PEG400, Captisol); type: physicochemical; conditions: aqueous with cosolvent or surfactant or cyclodextrin
Procedure: Combinations of Solutol HS-15 (also known as Kolliphor HS-15) with PEG400 provided a good vehicle to solubilize the tested compounds. Specifically, 10% Solutol/90% PEG400 was used to prepare 20 mg/ml solutions of compound 1, compound 44, and compound 32. 10% Solutol/15% H2O/[…] led to 10 mg/ml solutions of the tested compounds.
as §1

[5] = In vivo conversion of prodrug to parent compound
Procedure: FIG. 1 contains chemical schemes showing in vivo conversion of prodrug compounds 51, 52, 53 to their parent compounds 22, 1, and 1, respectively.
as §1

Sequence of h12/15-LOX (P16050 whole entry): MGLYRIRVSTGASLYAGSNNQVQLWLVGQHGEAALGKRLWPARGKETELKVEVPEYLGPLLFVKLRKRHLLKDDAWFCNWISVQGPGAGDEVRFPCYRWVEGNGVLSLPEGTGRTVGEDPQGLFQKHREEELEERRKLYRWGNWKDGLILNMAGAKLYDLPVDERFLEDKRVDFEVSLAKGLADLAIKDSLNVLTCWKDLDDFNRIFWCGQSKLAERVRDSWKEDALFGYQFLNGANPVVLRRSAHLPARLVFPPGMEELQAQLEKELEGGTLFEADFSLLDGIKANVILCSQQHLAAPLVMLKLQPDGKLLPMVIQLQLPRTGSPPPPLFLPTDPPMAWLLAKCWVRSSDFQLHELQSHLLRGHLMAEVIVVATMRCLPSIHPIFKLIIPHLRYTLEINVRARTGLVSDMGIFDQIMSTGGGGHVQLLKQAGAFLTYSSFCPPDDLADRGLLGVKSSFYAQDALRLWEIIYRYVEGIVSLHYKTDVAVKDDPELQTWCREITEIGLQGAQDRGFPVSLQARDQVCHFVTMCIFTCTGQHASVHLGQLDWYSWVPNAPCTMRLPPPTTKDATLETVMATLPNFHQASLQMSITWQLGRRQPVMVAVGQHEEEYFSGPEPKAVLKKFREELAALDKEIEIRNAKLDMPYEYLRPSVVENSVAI

Compound	hydrolysis in plasma [1]	aqueous solubility versus parent compound [2]	IC50 (h12/15-LOX) [µM]	infarct size reduction ([3]; hydrochloride) [%]	infarct size reduction ([3]; listed as Cmpd. 52, hydrochloride) [%]	solubility ([4]; 20% Captisol) [mg/mL]	solubility ([4]; 50% Captisol solution) [mg/mL]	in vivo processing of prodrug [5]
N#Cc1nc(-c2cc(Cl)cc(Cl)c2Cl)oc1NCCCCCOP(=O)(O)O [Compound 51, 5-((4-cyano-2-(2,3,5-trichlorophenyl)oxazol-5-yl)amino) pentyl dihydrogen phosphate]	susceptible to hydrolysis in plasma	high aqueous solubility versus parent compound 22	> 20					
CN(C)CCCOC(=O)N(C)c1oc(-c2cc(Cl)cc(Cl)c2Cl)nc1C#N [Compound 52, 3-(dimethylamino) propyl (4-cyano-2-(2,3,5-trichlorophenyl)oxazol-5-yl)(methyl) carbamate hydrochloride]			1.4	31.7	31.7	20	27	processed to the parent molecule, compound 1
